# US20230210853A1 (Halia Therapeutics, Inc., priority 2020, published 2023)
# Biological target: T1, full-length recombinant human NEK7 (Homo sapiens, UniProt Q8TDX7)
# T1 construct: full-length recombinant human NEK7; GST (N); purchased SignalChem N09-10G; host or cells: Sf9 insect cells (baculovirus)
# Experiment: NEK7 enzymatic assay ([33P]-ATP, casein substrate)
# Type: biochemical
# Settings: Table 2a; recombinant human NEK7, casein substrate
# Description: In some embodiments, the IC50 of the compounds of Structure (I), (Ia), (Ib), (Ic), (Id), (Ie), or (If) to inhibit NEK7 was determined by the concentration of the compound required to inhibit 50% of the activity of the NEK kinase.
# (§1) Casein substrate (from bovine milk, hydrolyzed and partially dephosphorylated mixture of α, β and κ caseins, obtained from Sigma Aldrich, catalogue #C4765, diluted in distilled water to a final concentration of 1 mg/mL) and full-length recombinant human NEK7 (expressed by baculovirus in Sf9 insect cells using a N-terminal GST tag, obtained from SignalChem, catalogue #N09-10G, 0.1 μg/μL) were mixed in assay buffer (20 mM Hepes pH 7.5, 10 mM MgCl2, 1 mM EGTA, 0.02% Brij35, 0.02 mg/ml BSA, 0.1 mM Na3 VO4, 2 mM DTT, 1% DMSO). Compounds of interest (serial 3-fold dilution in DMSO from 10 μM to 0.5 nM) or vehicle (1% DMSO) were dispensed into the kinase reaction mixture by Acoustic technology (Echo550, nanoliter range). After incubation at room temperature for 20 minutes, the kinase reaction was initiated by addition of [^33P]-ATP (specific activity 10 μCi/μl) and the mixture was incubated at room temperature for 2 hours. The reaction was then stopped by spotting the reaction mixture on strips of phosphocellulose P81 paper. Following washing, the radioactivity of the P81 paper was measured and kinase activity data were expressed as the percent remaining kinase activity in test samples compared to vehicle reactions. IC50 values and curve fits were obtained using Prism (GraphPad Software).
# as §1, with “μg/L)” for “μg/μL)”, “Na3VO4,” for “Na3 VO4,”, “(Echo550;” for “(Echo550,”
# T1 sequence (Q8TDX7 whole entry): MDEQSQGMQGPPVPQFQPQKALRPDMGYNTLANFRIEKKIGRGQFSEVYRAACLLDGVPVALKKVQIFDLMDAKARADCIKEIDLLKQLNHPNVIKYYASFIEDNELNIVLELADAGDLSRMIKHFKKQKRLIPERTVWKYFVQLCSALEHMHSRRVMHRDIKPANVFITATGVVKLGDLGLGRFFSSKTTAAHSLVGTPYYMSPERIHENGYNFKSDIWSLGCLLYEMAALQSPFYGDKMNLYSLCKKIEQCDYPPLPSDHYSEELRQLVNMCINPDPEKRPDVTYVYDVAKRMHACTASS
row,IC50 [µM],Structure (SMILES)
1,0.151 to 0.3,"CCC(CC)c1cc(NC(=O)Nc2ccc(-c3nn(C4CC4)c4ncnc(N)c34)cc2F)on1 [Ia-40, 1-(4-(4-amino-1-cyclopropyl-1H-pyrazolo[3,4-d]pyrimidin-3-yl)-2-fluorophenyl)-3-(3-(pentan-3-yl)isoxazol-5-yl)urea]"
2,0.151 to 0.3,"CC(C)(C)c1cc(NC(=O)Nc2ccc(-c3nn(C4COC4)c4ncnc(N)c34)cc2)no1 [Ia-3, 1-(4-(4-amino-1-(oxetan-3-yl)-1H-pyrazolo[3,4-d]pyrimidin-3-yl)phenyl)-3-(5-(tert-butyl)isoxazol-3-yl)urea]"
3,0.501 to 1.5,"CC(C)(C)c1cc(NC(=O)Nc2ccc(-c3nn(C4CC(F)(F)C4)c4ncnc(N)c34)cc2F)on1 [Ia-16, 1-(4-(4-amino-1-(3,3-difluorocyclobutyl)-1H-pyrazolo[3,4-d]pyrimidin-3-yl)-2-fluorophenyl)-3-(3-(tert-butyl)isoxazol-5-yl)urea]"
4,< 0.15,"CC(C)(C)c1cc(NC(=O)Nc2ccc(-c3nn(C4COC4)c4ncnc(N)c34)cc2F)no1 [Ia-23, 1-(4-(4-amino-1-(oxetan-3-yl)-1H-pyrazolo[3,4-d]pyrimidin-3-yl)-2-fluorophenyl)-3-(5-(tert-butyl)isoxazol-3-yl)urea]"
5,0.151 to 0.3,"CC(C)(C)c1cc(NC(=O)Nc2ccc(-c3nn(C4CCOC4)c4ncnc(N)c34)cc2)on1 (stereo not drawn) [Ia-5, 1-(4-(4-amino-1-(tetrahydrofuran-3-yl)-1H-pyrazolo[3,4-d]pyrimidin-3-yl)phenyl)-3-(3-(tert-butyl)isoxazol-5-yl)urea]"

# Same assay, conditions: Table 2b; recombinant human NEK7, casein substrate
row,IC50 [µM],Structure (SMILES)
1,0.501 to 1.5,"CC(C)(C)c1cc(NC(=O)Nc2ccc(Oc3ccnc4[nH]cc(Cl)c34)cc2F)n(-c2ccccc2)n1 [Ib-6, 1-(3-(tert-butyl)-1-phenyl-1H-pyrazol-5-yl)-3-(4-((3-chloro-1H-pyrrolo[2,3-b]pyridin-4-yl)oxy)-2-fluorophenyl)urea]"
2,0.501 to 1.5,"Cn1nc(C(C)(C)C)cc1NC(=O)Nc1ccc(Oc2ccnc3[nH]cc(Cl)c23)cc1F [Ib-7, 1-(3-(tert-butyl)-1-methyl-1H-pyrazol-5-yl)-3-(4-((3-chloro-1H-pyrrolo[2,3-b]pyridin-4-yl)oxy)-2-fluorophenyl)urea]"

# Same assay, conditions: Table 2e; recombinant human NEK7, casein substrate
row,IC50 [µM],Structure (SMILES)
1,> 1.5,"CN1CCN(c2cc(NC(=O)Nc3ccc(Oc4ccnc5[nH]cc(Cl)c45)cc3F)cc(C(F)(F)F)c2)CC1 [Ie-6, 1-(4-((3-chloro-1H-pyrrolo[2,3-b]pyridin-4-yl)oxy)-2-fluorophenyl)-3-(3-(4-methylpiperazin-1-yl)-5-(trifluoromethyl)phenyl)urea]"
2,> 1.5,Cc1cc(Oc2ccnc3[nH]cc(Cl)c23)ccc1NC(=O)Nc1ccc(CN2CCN(C)CC2)c(C(F)(F)F)c1 [Ie-29]
3,0.301 to 0.5,"CN1CCN(Cc2ccc(NC(=O)Nc3ccc(Oc4ccnc5[nH]c(Cl)c(Cl)c45)cc3F)cc2C(F)(F)F)CC1 [Ie-25, 1-(4-((2,3-dichloro-1H-pyrrolo[2,3-b]pyridin-4-yl)oxy)-2-fluorophenyl)-3-(4-((4-methylpiperazin-1-yl)methyl)-3-(trifluoromethyl)phenyl)urea]"
4,0.501 to 1.5,"CN1CCN(Cc2ccc(NC(=O)Nc3ccc(Oc4ccnc5[nH]cc(Cl)c45)cc3F)cc2C(F)F)CC1 [Ie-22, 1-(4-((3-chloro-1H-pyrrolo[2,3-b]pyridin-4-yl)oxy)-2-fluorophenyl)-3-(3-(difluoromethyl)-4-((4-methylpiperazin-1-yl)methyl)phenyl)urea]"
5,0.501 to 1.5,"Cc1cn(-c2cc(NC(=O)Nc3ccc(Oc4ccnc5[nH]cc(Cl)c45)cc3F)cc(C(F)(F)F)c2)cn1 [Ie-3, 1-(4-((3-Chloro-1H-pyrrolo[2,3-b]pyridin-4-yl)oxy)-2-fluorophenyl)-3-(3-(4-methyl-1H-1-imidazol-1-yl)-5-(TRIFLUOROMETHYL)phenyl)urea]"
6,0.501 to 1.5,"CCN1CCN(Cc2ccc(NC(=O)Nc3ccc(Oc4ccnc5[nH]cc(Cl)c45)cc3F)cc2C(F)F)CC1 [Ie-23, 1-(4-((3-chloro-1-pyrrolo[2,3-b]pyridin-4-yl)oxy)-2-fluorophenyl)-3-(3-(difluoromethyl)-4-((4-ethylpiperazin-1-yl)methyl)phenyl)urea]"
7,> 1.5,"COc1cc(CN2CCN(C)CC2)ccc1NC(=O)Nc1ccc(Oc2ccnc3[nH]cc(Cl)c23)cc1F [Ie-40, 1-(4-((3-chloro-1H-pyrrolo[2,3-b]pyridin-4-yl)oxy)-2-fluorophenyl)-3-(2-methoxy-4-((4-methylpiperazin-1-yl)methyl)phenyl)urea]"

row,Structure (SMILES),IC50 [µM]
1,"CN1C[C@H]2CC[C@@H](C1)N2Cc1ccc(NC(=O)Nc2ccc(Oc3ccnc4[nH]cc(Cl)c34)cc2F)cc1C(F)(F)F [Ie-33, 1-(4-((3-chloro-1H-pyrrolo[2,3-b]pyridin-4-yl)oxy)-2-fluorophenyl)-3-(4-(((1R,5S)-3-methyl-3,8-diazabicyclo[3.2.1]octan-8-yl)methyl)-3-(trifluoromethyl)phenyl)urea]",> 1.5

# Same assay, conditions: Table 2d; recombinant human NEK7, casein substrate
row,IC50 [µM],Structure (SMILES)
1,< 0.15,CN1CCN(Cc2ccc(NC(=O)Nc3ccc(-c4cn(CCO)c5ncnc(N)c45)cc3F)cc2C(F)(F)F)CC1 [Id-70]
2,< 0.15,CC(C)N1CCN(Cc2ccc(NC(=O)Nc3ccc(-c4cn(C5CC5)c5ncnc(N)c45)cc3F)cc2C(F)(F)F)CC1 [Id-62]
3,> 1.5,"Nc1ncnc2c1c(-c1ccc(NC(=O)Nc3ccc(CN4CCOCC4)c(F)c3)c(F)c1)nn2C1CC1 [Id-47, 1-(4-(4-amino-1-cyclopropyl-1H-pyrazolo[3,4-d]pyrimidin-3-yl)-2-fluorophenyl)-3-(3-fluoro-4-(morpholinomethyl)phenyl)urea]"
4,< 0.15,"CCN1CCN(Cc2ccc(NC(=O)Nc3ccc(-c4cn(C5CC5)c5ncnc(N)c45)cc3F)cc2C(F)(F)F)CC1 [Id-40, 1-(4-(4-amino-7-cyclopropyl-7H-pyrrolo[2,3-d]pyrimidin-5-yl)-2-fluorophenyl)-3-(4-((4-ethylpiperazin-1-yl)methyl)-3-(trifluoromethyl)phenyl)urea]"
5,0.301 to 0.5,Nc1ncnc2c1c(-c1ccc(NC(=O)Nc3ccc(CN4CCN(C5CC5)CC4)c(C(F)(F)F)c3)c(F)c1)cn2C1CC1 [Id-61]
6,> 1.5,CN1CCC(Oc2ncc(NC(=O)Nc3ccc(-c4cn(C5CC5)c5ncnc(N)c45)cc3F)cc2C(F)(F)F)CC1 [Id-60]
7,> 1.5,"CCN1CCN(Cc2ccc(NC(=O)Nc3ccc(-c4nn(C5CC5)c5ncnc(N)c45)cc3F)cc2C(F)(F)F)CC1 [Id-7, 1-(4-(4-amino-t-cyclopropyl-1H-pyrazolo[3,4-d]pyrimidin-3-yl)-2-fluorophenyl)-3-(4-((4-ethylpiperazin-1-yl)methyl)-3-(trifluoromethyl)phenyl)urea]"
8,> 1.5,"Cc1cc(NC(=O)Nc2ccc(-c3nn(C4CC4)c4ccnc(N)c34)cc2F)ccc1N1CCOCC1 [Id-55, 1-(4-(4-amino-1-cyclopropyl-1H-pyrazolo[4,3-c]pyridin-3-yl)-2-fluorophenyl)-3-(3-methyl-4-morpholino-phenyl)urea]"
9,< 0.15,"Nc1ncnc2c1c(-c1ccc(NC(=O)Nc3ccc(CN4CCNCC45CC5)c(C(F)(F)F)c3)c(F)c1)cn2C1CC1 [Id-65, 1-(4-((4,7-diazaspiro[2,5]octan-4-yl)methyl)-3-(trifluoromethyl)phenyl)-3-(4-(4-amino-7-cyclopropyl-7H-pyrrolo[2,3-d]pyrimidin-5-yl)-2-fluorophenyl)urea]"

# Same assay, conditions: comparative compounds of Structure (II)
row,IC50 [µM],Structure (SMILES)
1,0.501 to 1.5,"Nc1ncnc2c1c(-c1ccc3c(c1F)CCN3C(=O)Cc1ccc(F)c(C(F)(F)F)c1)nn2C1COC1 [II-9, 1-(5-(4-amino-1-(oxetan-3-yl)-1H-pyrazolo[3,4-d]pyrimidin-3-yl)-4-fluoroindolin-1-yl)-2-(4-fluoro-3-(trifluoromethyl)phenyl)ethan-1-one]"
2,0.501 to 1.5,"CC(C)n1nc(-c2ccc3c(c2Cl)CCN3C(=O)Cc2ccc(F)c(C(F)(F)F)c2)c2c(N)ncnc21 [II-8, 1-(5-(4-amino-1-isopropyl-1H-pyrazolo[3,4-d]pyrimidin-3-yl)-4-chloroindolin-1-yl)-2-(4-fluoro-3-(trifluoromethyl)phenyl)ethan-1-one]"
3,0.301 to 0.5,"Cc1ccc(CC(=O)N2CCc3c2ccc(-c2nn(C(C)C)c4ncnc(N)c24)c3F)cc1C(F)(F)F [II-5, 1-(5-(4-amino01-isopropyl-1H-pyrazolo[3,4-d]pyrimidin-3-yl)-4-fluoroindolin-1-yl)-2-(4-methyl-3-(trifluoromethyl)phenyl)ethan-1-one]"
